Where a chain is given by its changes, count along the chain named.
Key:
RXRγ [1] = target: T1, RXRγ (Homo sapiens, UniProt P48443); test: ligand binding assay, RXRγ; settings: read-out: RXR Bind Ki γ
T1 sequence (P48443 1-463): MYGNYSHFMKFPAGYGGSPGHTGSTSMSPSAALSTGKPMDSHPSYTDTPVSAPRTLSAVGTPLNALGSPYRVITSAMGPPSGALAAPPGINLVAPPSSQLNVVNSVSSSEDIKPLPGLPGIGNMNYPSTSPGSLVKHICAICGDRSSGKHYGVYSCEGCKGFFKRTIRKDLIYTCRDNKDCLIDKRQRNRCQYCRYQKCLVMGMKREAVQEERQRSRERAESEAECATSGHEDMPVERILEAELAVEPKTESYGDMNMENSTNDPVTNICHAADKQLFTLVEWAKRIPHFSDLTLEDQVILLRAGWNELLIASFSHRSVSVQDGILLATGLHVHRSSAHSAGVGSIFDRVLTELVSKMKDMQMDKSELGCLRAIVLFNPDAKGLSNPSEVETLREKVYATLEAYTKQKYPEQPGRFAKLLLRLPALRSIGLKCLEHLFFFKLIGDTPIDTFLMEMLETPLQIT
Text: (§1) Other assays described below, measure the ability of the compounds of the present invention to bind to, and/or activate various retinoid receptor subtypes. When in these assays a compound binds to a given receptor subtype and activates the transcription of a reporter gene through that subtype, then the compound is considered an agonist of that receptor subtype. […] In the below described assays the ability of the compounds to bind to RARα, RARβ, RARγ, RXRα, RXRβ and RXRγ receptors, and the ability or inability of the compounds to activate transcription of a reporter gene through these receptor subtypes can be tested. […] However, some of the compounds of the invention may behave as retinoid antagonists or partial antagonists and/or as inverse agonists. Because of the complex distribution of the different retinoid receptors in various organs of the mammalian body partial agonists and partial antagonists and compounds which have the characteristics of both may lend themselves to particularly useful therapeutic applications and may avoid serious side effects of conventional retinoid drugs.
(§2) A holoreceptor transactivation assay and a ligand binding assay which measure the antagonist/agonist like activity of the compounds of the invention, or their ability to bind to the several retinoid receptor subtypes, respectively, are described in published PCT Application No. WO WO93/11755 (particularly on pages 30-33 and 37-41) published on Jun. 24, 1993, the specification of which is also incorporated herein by reference. A detailed experimental procedure for holoreceptor transactivations has been described by Heyman et al. Cell 68, 397-406, (1992); Allegretto et al. J. Biol. Chem. 268, 26625-26633, and Mangelsdorf et al. The Retinoids: Biology, Chemistry and Medicine, pp 319-349, Raven Press Ltd., New York, which are expressly incorporated herein by reference. The results obtained in this assay are expressed in EC50 numbers, as they are also in the chimeric receptor transactivation assay. The results of ligand binding assay are expressed in Kd numbers. (See Cheng et al. Biochemical Pharmacology Vol. 22 pp 3099-3108, expressly incorporated herein by reference.)
(§3) Table 1 discloses the activity of certain exemplary compounds of the invention in the above-described chimeric receptor transactivation assay, holoreceptor transactivation assay and a ligand binding assays. Particularly, the transactivation data pertaining to RAR receptors were obtained in the chimeric assay, and the data pertaining to transactivation of RXR receptors were obtained in the holoreceptor transactivation assay.

RARα = target: T2, RARα (Homo sapiens, UniProt P10276); test: ligand binding assay, RARα; settings: read-out: RAR Bind Ki α
T2 sequence (P10276 1-462): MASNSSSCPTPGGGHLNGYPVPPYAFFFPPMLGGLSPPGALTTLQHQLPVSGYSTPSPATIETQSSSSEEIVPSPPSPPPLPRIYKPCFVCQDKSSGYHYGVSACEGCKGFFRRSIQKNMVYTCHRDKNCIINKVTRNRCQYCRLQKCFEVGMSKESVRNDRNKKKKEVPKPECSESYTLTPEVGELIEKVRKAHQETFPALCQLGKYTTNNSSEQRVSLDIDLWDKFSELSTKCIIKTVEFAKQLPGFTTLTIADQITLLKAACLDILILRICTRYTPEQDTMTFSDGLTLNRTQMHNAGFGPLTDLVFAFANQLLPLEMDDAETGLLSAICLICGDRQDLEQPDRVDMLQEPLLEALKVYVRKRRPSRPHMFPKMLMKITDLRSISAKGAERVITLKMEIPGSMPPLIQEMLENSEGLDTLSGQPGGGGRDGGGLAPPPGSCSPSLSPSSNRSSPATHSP
Text: as §1, §2, §3

RXRβ = target: T3, RXRβ (Homo sapiens, UniProt P28702); test: ligand binding assay, RXRβ; settings: read-out: RXR Bind Ki β
T3 sequence (P28702 1-533): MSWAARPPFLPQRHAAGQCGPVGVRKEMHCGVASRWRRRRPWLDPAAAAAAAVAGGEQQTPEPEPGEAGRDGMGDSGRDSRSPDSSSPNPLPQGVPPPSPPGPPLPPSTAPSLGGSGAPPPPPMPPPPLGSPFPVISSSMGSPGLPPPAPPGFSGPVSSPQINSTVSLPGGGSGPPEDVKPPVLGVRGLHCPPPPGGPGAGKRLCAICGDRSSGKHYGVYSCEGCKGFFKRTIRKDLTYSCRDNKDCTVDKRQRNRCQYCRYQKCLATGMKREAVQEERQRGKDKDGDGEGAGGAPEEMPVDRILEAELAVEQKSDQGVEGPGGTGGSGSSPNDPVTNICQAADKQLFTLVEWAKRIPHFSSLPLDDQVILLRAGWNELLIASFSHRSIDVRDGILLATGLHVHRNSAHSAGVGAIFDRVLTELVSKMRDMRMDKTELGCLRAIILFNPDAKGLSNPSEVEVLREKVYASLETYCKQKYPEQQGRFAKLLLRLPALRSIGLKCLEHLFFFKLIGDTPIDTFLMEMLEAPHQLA
Text: as §1, §2, §3

RXRγ [2] = target: T4, RXRγ (Mus musculus, UniProt P28705); test: holoreceptor transactivation assay, RXRγ; format: cell-based; settings: for EC50: holoreceptor assay, read-out: RXR Trans EC50 γ; for Emax: relative to 10^-6 M cyclopropyl penta-2,4-dienoic acid reference, read-out: % efficacy, RXRγ transactivation
T4 construct: expressed in transfected cells
T4 sequence (P28705 1-463): T1 sequence (P48443 1-463) with A13T, Y15F, A31V, S34P, T228S, G230S, M258V, T450S
Text: as §1, §2, §3

Ki (RXRγ [1])	Ki (RARα)	Ki (RXRβ)	EC50 (RXRγ [2])	Emax (RXRγ [2])	Structure (SMILES)
38 nM	9600 nM	99 nM	0.5 nM	96%	CCN(c1ccc(C(=O)O)cc1)c1cc2c(cc1C)C(C)(C)CCN2C(C)C [Compound 52, 4-[-(1-Isopropyl-4,4,6-trimethyl-1,2,3,4-tetrahydro-quinolin-7-yl)ethylamino]-benzoic acid]
34 nM	5100 nM	42 nM	0.2 nM	105%	CC(C)N1CCC(C)(C)c2ccc(N(CC3CC3)c3ccc(C(=O)O)cc3)cc21 [Compound 40, 4-[(1-Isolpropyl-4,4-dimethyl-1,2,3,4-tetrahydroquinolin-7-yl)(cylopropylmethyl)amino]benzoic acid]
> 10000 nM	10000 nM				CCN(c1ccc(C(=O)O)cc1)c1ccc2c(c1)C(C)(C)CC(=O)N2C(C)C [Compound 6, 4-[(1-Isopropyl-4,4-dimethyl-2-oxo-1,2,3,4-tetrahydroquinolin-6-yl)ethylamino]benzoic Acid]
317 nM	> 10000 nM	142 nM	47 nM	104%	Cc1cc2c(cc1N(C)c1ccc(C(=O)O)cc1)N(C(C)C)CCC2(C)C [Compound 51, 4-[(1-Isopropyl-4,4,6-trimethyl-1,2,3,4-tetrahydro-quinolin-7-yl)-methyl-amino]-benzoic acid]
> 1000 nM	> 10000 nM	1100 nM	1000 nM	100%	Cc1cc2c(cc1N(C)c1ccc(C(=O)O)cc1)C(C)(C)CCN2C(C)C [Compound 22, 4-[(1-Isopropyl-4,4,7-trimethyl-1,2,3,4-tetrahydroquinolin-6-yl)methylamino]benzoic acid]
27 nM	> 10000 nM	57 nM	1 nM	109%	CCN(c1ccc(C(=O)O)cc1)c1ccc2c(c1)N(C(C)C)CCC2(C)C [Compound 38, 4-[(1-Isopropyl-4,4-dimethyl-1,2,3,4-tetrahydroquinolin-7-yl)ethylamino]benzoic acid]
1300 nM	467 nM	273 nM	148 nM	150%	CCN(c1ccc(C(=O)O)cc1)c1ccc2c(c1)C(C)(C)CCN2C(C)C [Compound 12, 4-[(1-Isopropyl-4,4-dimethyl-1,2,3,4-tetrahydroquinolin-6-yl)ethylamino]benzoic acid]
> 1000 nM	340 nM	778 nM			CC(C)CCN(c1ccc(C(=O)O)cc1)c1ccc2c(c1)C(C)(C)CCN2C(C)C [Compound 14, 4-[(1-Isopropyl-4,4-dimethyl-1,2,3,4-tetrahydroquinolin-6-yl)(3-methylbutyl)amino]-benzoic Acid]
> 1000 nM	> 10000 nM	1100 nM	69 nM	117%	CCN(c1ccc(C(=O)O)cc1)c1cc2c(cc1C)N(C(C)C)CCC2(C)C [Compound 24, 4-[(1-Isopropyl-4,4,7-trimethyl-1,2,3,4-tetrahydroquinolin-6-yl)ethylamino]benzoic acid]
1300 nM	15000 nM	386 nM	1000 nM	75%	Cc1cc2c(cc1N(CC1CC1)c1ccc(C(=O)O)cc1)C(C)(C)CCN2C(C)C [Compound 26, 4-[(1-Isopropyl-4,4,7-trimethyl-1,2,3,4-tetrahydro-quinolin-6-yl)(cyclopropylmethyl)amino]benzoic acid]
> 10000 nM	> 10000 nM	> 1000 nM	1000 nM	50%	CC(C)N1CCC(C)(C)c2cc(N(C)c3ccc(C(=O)O)cc3)ccc21 [Compound 10, 4-[(1-Isopropyl-4,4-dimethyl-1,2,3,4-tetrahydroquinolin-6-yl)methylamino]benzoic Acid]
95 nM	3010 nM	43 nM	0.3 nM	96%	CCCN(c1ccc(C(=O)O)cc1)c1cc2c(cc1C)C(C)(C)CCN2C(C)C [Compound 53, 4-[(1-Isopropyl-4,4,6-trimethyl-1,2,3,4-tetrahydro-quinolin-7-yl)-propyl-amino]-benzoic acid]
> 1000 nM	> 10000 nM	262 nM	4 nM	102%	Cc1cc2c(cc1Nc1ccc(C(=O)O)cc1)N(C(C)C)CCC2(C)C [Compound 50, 4-(1-Isopropyl-4,4,6-trimethyl-1,2,3,4-tetrahydro-quinolin-7-ylamino)-benzoic acid]
60 nM	6700 nM	133 nM	2 nM	112%	CC(C)CN(c1ccc(C(=O)O)cc1)c1ccc2c(c1)N(C(C)C)CCC2(C)C [Compound 39, 4-[(1-Isopropyl-4,4-dimethyl-1 2,3,4-tetrahydroquinolin-7-yl)isobutylamino]benzoic acid]

— patent publication US6127382A, “Amines substituted with a tetrahydroquinolinyl group an aryl or heteroaryl group and an alkyl group, having retinoid-like biological activity” (Allergan Sales, Inc., priority 1999, dated 2000)
